In PubChem BioAssay AID624057 (Broad Institute, 2012):
Where “and” joins values, the source holds several entries; their conditions need not be identical. Equal entries are not always repeated. Calls of active or inactive are those of the source. No rule for the calls is given here.

How the values were obtained:
[1] = target: Glycogen synthase kinase-3 beta (Homo sapiens) (UniProt P49841); test: reduction of cellular Tau Ser199 phosphorylation, dose response, cell-based, SH-SY5Y, ELISA, pTau Ser199, powder samples (AID 624057); details: SH-SY5Y pTau(Ser199)/total Tau ELISA
Chain of Glycogen synthase kinase-3 beta (Homo sapiens) (P49841 whole entry, looked up): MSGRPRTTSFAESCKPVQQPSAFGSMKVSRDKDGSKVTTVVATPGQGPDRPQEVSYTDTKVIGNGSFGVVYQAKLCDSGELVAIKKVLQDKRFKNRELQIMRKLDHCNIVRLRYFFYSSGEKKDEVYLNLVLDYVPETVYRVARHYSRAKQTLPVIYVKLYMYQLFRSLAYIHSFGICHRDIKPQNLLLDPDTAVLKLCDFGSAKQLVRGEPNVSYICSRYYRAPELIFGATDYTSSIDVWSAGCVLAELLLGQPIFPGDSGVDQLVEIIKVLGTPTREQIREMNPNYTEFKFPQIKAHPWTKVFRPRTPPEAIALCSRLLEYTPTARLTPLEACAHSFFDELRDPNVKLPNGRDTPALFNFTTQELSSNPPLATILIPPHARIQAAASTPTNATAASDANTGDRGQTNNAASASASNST

[2] = as above; details: SH-SY5Y pTau(Ser199)/total Tau ELISA; measured here: cell survival (total Tau) top dose; at 35 µM; stronger effect = lower value

| SMILES | IC50 [1] | viability [2] |
| --- | --- | --- |
| CC1(C)CC(=O)C2=C(C1)Nc1n[nH]c(C(F)(F)F)c1C2c1ccccc1C(F)(F)F (stereo not drawn) | 0.41 µM | – |
| CC1(C)CC(=O)C2=C(C1)Nc1n[nH]c(C(F)(F)F)c1C2c1cccc(F)c1C(F)(F)F (stereo not drawn) | 1.38 µM | 57.1% |
| Cc1[nH]nc2c1C(c1ccccc1Cl)C1=C(CC(C)(C)CC1=O)N2 (stereo not drawn) | 2.49 µM | – |
| Cc1[nH]nc2c1[C@H](c1ccccc1C(F)(F)F)C1=C(CC(C)(C)CC1=O)N2 | > 35 µM (inactive) | – |
| CC1(C)CC(=O)C2=C(C1)Nc1n[nH]c(C(F)(F)F)c1C2c1ccccc1 (stereo not drawn) | 0.51 µM | – |
| Cc1[nH]nc2c1C(c1cccc(C(F)(F)F)c1)C1=C(CC(C)(C)CC1=O)N2 (stereo not drawn) | 4.68 µM | – |
| Cc1[nH]nc2c1C(c1cccc(C#N)c1)C1=C(CC(C)(C)CC1=O)N2 (stereo not drawn) | 2.5 µM | 119% |
| Cc1[nH]nc2c1C(c1cccc3nonc13)C1=C(CC(C)(C)CC1=O)N2 (stereo not drawn) | 2.27 µM | 112% |
| Cc1[nH]nc2c1C(c1ccccc1F)C1=C(CC(C)(C)CC1=O)N2 (stereo not drawn) | – | 113% |
| COc1ccccc1[C@@H]1C2=C(CC(C)(C)CC2=O)Nc2n[nH]c(C)c21 | 6.57 µM and > 35 µM (inactive) | – |
| Cc1[nH]nc2c1C(c1ccccc1C(F)(F)F)C1=C(CC(C)(C)CC1=O)N2 (stereo not drawn) | 4.24 µM | – |
| Cc1[nH]nc2c1[C@@H](c1ccccc1C(F)(F)F)C1=C(CC(C)(C)CC1=O)N2 | 2.27 µM | 110% |
| CC1(C)CC(=O)C2=C(C1)Nc1n[nH]c(C(F)(F)F)c1C2(C)c1ccccc1 (stereo not drawn) | 1.87 µM | – |
| COc1ccccc1C1C2=C(CC(C)(C)CC2=O)Nc2n[nH]c(C(F)(F)F)c21 (stereo not drawn) | 2.75 µM and 0.76 µM | – |
| COc1ccccc1C1C2=C(CC(C)(C)CC2=O)Nc2n[nH]c(C)c21 (stereo not drawn) | 7.1 µM | – |
| CSc1ccccc1C1C2=C(CC(C)(C)CC2=O)Nc2n[nH]c(C)c21 (stereo not drawn) | 2.85 µM | 106% |
| COc1ccccc1[C@H]1C2=C(CC(C)(C)CC2=O)Nc2n[nH]c(C(F)(F)F)c21 | > 35 µM (inactive) | – |
| COc1ccccc1[C@@H]1C2=C(CC(C)(C)CC2=O)Nc2n[nH]c(C(F)(F)F)c21 | 0.56 µM | – |
